In article PMC5587642, “A Novel Benzocoumarin-Stilbene Hybrid as a DNA ligase I inhibitor with in vitro and in vivo anti-tumor activity in breast cancer models” (Scientific Reports, 2017):

Experiments:
[1] = target: T1, flap cleavage activity (FEN1) in MDA-MB-231 cell lysate (Homo sapiens, UniProt P39748); assay: Ex-vivo flap cleavage with lysate of treated cells; format: cell-based; details: MDA-MB-231, treated 48 h
T1 construct: endogenous in cells; host or cells: MDA-MB-231
Protocol: Cells (MDA-MB-231) were seeded in 6 well plates and treated either with vehicle control (DMSO) or with different concentrations (6 and 12 µM) of compound 19 for 48 h. After the treatment cell lysate was prepared and western blotting was performed as described previously. Briefly, the cells were lysed by very brief sonication. Sonicated samples were centrifuged and the supernatant was collected and used for ligation assay and western blotting.
The MDA-MB-231 and 4T1 cells were treated with different concentrations of compound 19 for 48h. Cell lysate were prepared as described previously ^6 for the ligation assay. Here we used same DNA substrate which was used in FEN1 flap cleavage assay so that we can check the activity of hLigI and FEN1 proteins in compound 19 treated samples. The reactions were performed as described previously ^6. In the Supplementary Fig. 74 cleaved product remain (25 mer) same. This cleaved product occurs after the cleavage of 25+6 mer oligo by FEN1 protein, since the cleaved product (25 mer) remains same in treated as well as in control samples we can conclude that the compound 19 unable to inhibit the FEN1 protein inside the cells. The cleaved product (25 mer) make a double strand nicked substrate for hLig I protein with 27 mer and 52 mer oligo used in the reaction. hLigI protein gives rise to ligated (52 mer oligo) product after the completion of reaction. […]

hLigI [2] = target: T2, hLigI (Homo sapiens, UniProt P18858); assay: Circular dichroism study; format: binding; details: 5 and 10 µM
T2 construct: made in house
Protocol: We followed previously described protocol for CD studies[40] with small modifications. Briefly, emission spectra of hLigI (100 pmol) was recorded at a wavelength of 190-250 nm in the presence (5 and 10 µM) or absence of compound 19 by spectropolarimeter. The raw values in mdeg were obtained and used for mean residual ellipticity [θ] calculation. The graph was generated by the plotting the value of mean residue ellipticity in deg cm^2 dmol^−1 with respect to wavelength.

MDA-MB-231 cells = assay: Scratch (migration) assay; format: cell-based, human; details: 3 and 6 µM; 12 and 24 h
Protocol: The migration capacity of highly metastatic human breast cancer MDA-MB-231 cells was assessed by in-vitro scratch assay as described previously[36] with some modifications. Briefly, cells were plated in 12 well plates and a scratch was created by scraping the cells with a sterile 10 μL pipet tip in the middle of the culture well. After removal of cellular debris, the cells were treated with different concentrations of the test compound. Images of the wound area were captured at 0, 12 and 24 h post-treatment. Wound area was measured by TScratch software and data were expressed as percent (%) open area of control and treated cells.

[3] = In-vivo pharmacokinetic study; parameters: species or system Sprague Dawley (SD) rats; details: rat
Protocol: Male Sprague Dawley (SD) rats weighing 200–220 g were obtained from the Laboratory of Animal Division of CSIR-CDRI (Lucknow, India). Animals were kept in well ventilated cages in hygienic conditions at room temperature (24 ± 2 °C), 40–60% relative humidity and 12 h light-dark cycle. The animals were acclimatized for a minimum period of 3 days prior to the experiments. Pharmacokinetic study was conducted according to protocol approved by the CSIR-CDRI Institutional Animal Ethic Committee (IAEC approval no. IAEC/2012/91). Compound 19 was dissolved in DMSO:Poly Ethylene Glycol-400: 0.9%w/v saline in the ratio of 1:1:2 and was intravenously administered at the dose of 5 mg/kg to each rat (n = 6). The rats were kept on fasting overnight with water alone for oral pharmacokinetic studies. Compound 19 was dissolved in DMSO:Poly Ethylene Glycol-400: 0.5% w/v Sodium carboxymethyl cellulose in TDW in the ratio of 3:1:4 and was orally administered at the dose of 50 mg/kg to each rat (n = 6). Blood samples were collected in microcentrifuge tubes for each time point at 0.083, 0.167, 0.333, 0.5, 0.75, 1.0, 2.0, 4.0, 6.0, 8.0, 10.0, 12.0, 24.0, 48.0 and 72 h post dosing. The blood samples were collected after light ether anesthesia from the retro-orbital plexus of rats using heparin as anticoagulant. Plasma was separated after centrifugation at 5000 rpm for 10 min and all the samples were stored at −80 °C until analysis. Rat plasma samples were processed using liquid-liquid extraction. 100 µL aliquot of plasma mixed with 150 µL of acetonitrile and 100 µL of 5 mM NaHCO3 solution was added and vortexed to mix well. In each sample, 2.5 mL of tert-Butyl methyl ether (TBME) (extraction solvent) was added and vortexed for 10 min at 2500 rpm on vibramax (Heidolph, Schwabach, Germany) followed by centrifugation (Eppendorf, Hamburg, Germany) at 5,000 rpm for 5 min. An aliquot of 2.0 mL of supernatant organic layer was separated and evaporated on vacuum concentrator (Thermo scientific, Asheville, USA) to complete dryness. The residue was reconstituted with 100 µL of mobile phase and injected into the LC-MS/MS system for analysis. The plasma samples ([…]) were assayed along with calibration standards and QC samples and the levels of compound 19 was calculated using Analyst software. The pharmacokinetic profile and parameters were evaluated by non-compartmental model approach using Pheonix 6.3 WinNonlin (Pharsight corporation, USA) including t1/2, elimination half-life; Cmax, maximum plasma concentration; tmax, time to reach maximum plasma concentration; AUC0-t, area under concentration curve from zero to last time point.

[4] = test system: DNA ligase activity in 4T1 cell lysate; assay: Ex-vivo ligation assay with lysate of treated cells; format: cell-based, mouse; details: 4T1, treated 48 h
Protocol: The MDA-MB-231 and 4T1 cells were treated with different concentrations of compound 19 for 48h. Cell lysate were prepared as described previously ^6 for the ligation assay. Here we used same DNA substrate which was used in FEN1 flap cleavage assay so that we can check the activity of hLigI and FEN1 proteins in compound 19 treated samples. The reactions were performed as described previously ^6. In the Supplementary Fig. 74 cleaved product remain (25 mer) same. This cleaved product occurs after the cleavage of 25+6 mer oligo by FEN1 protein, since the cleaved product (25 mer) remains same in treated as well as in control samples we can conclude that the compound 19 unable to inhibit the FEN1 protein inside the cells. The cleaved product (25 mer) make a double strand nicked substrate for hLig I protein with 27 mer and 52 mer oligo used in the reaction. hLigI protein gives rise to ligated (52 mer oligo) product after the completion of reaction. In the treated samples, ligated product (52 mer) decreases as compared to untreated samples.

T4 DNA ligase = T4 DNA ligase (Enterobacteria phage T4, UniProt P00970); assay: In-vitro DNA ligation assay; format: biochemical; details: 5, 10 and 20 µM
Protocol: (§1) DNA ligation assay was performed as described previously. […] After the incubation, gel images were captured and analyzed by Image Quant LAS4010 software.

hLigIIIβ = target: T3, hLigIIIβ (Homo sapiens, UniProt P49916); assay: In-vitro DNA ligation assay; format: biochemical; details: 5, 10 and 20 µM
T3 construct: made in house; host or cells: E. coli Rosetta2 (DE3) pLacI
Protocol: as §1

hLigIV/XRCC4 = target: T4, hLigIV/XRCC4 (Homo sapiens, UniProt P49917); assay: In-vitro DNA ligation assay; format: biochemical; details: 5, 10 and 20 µM
T4 construct: made in house; host or cells: E. coli Rosetta2 (DE3) pLacI
Protocol: as §1

hLigI [5] = target: T2, hLigI; assay: In-vitro DNA ligation assay; format: biochemical
Protocol: as §1

[6] = male, Sprague Dawley, plasma, iv, I.V route, 5 mg/kg
[7] = male, Sprague Dawley, plasma, oral route, 50 mg/kg

T2 sequence (P18858 whole entry): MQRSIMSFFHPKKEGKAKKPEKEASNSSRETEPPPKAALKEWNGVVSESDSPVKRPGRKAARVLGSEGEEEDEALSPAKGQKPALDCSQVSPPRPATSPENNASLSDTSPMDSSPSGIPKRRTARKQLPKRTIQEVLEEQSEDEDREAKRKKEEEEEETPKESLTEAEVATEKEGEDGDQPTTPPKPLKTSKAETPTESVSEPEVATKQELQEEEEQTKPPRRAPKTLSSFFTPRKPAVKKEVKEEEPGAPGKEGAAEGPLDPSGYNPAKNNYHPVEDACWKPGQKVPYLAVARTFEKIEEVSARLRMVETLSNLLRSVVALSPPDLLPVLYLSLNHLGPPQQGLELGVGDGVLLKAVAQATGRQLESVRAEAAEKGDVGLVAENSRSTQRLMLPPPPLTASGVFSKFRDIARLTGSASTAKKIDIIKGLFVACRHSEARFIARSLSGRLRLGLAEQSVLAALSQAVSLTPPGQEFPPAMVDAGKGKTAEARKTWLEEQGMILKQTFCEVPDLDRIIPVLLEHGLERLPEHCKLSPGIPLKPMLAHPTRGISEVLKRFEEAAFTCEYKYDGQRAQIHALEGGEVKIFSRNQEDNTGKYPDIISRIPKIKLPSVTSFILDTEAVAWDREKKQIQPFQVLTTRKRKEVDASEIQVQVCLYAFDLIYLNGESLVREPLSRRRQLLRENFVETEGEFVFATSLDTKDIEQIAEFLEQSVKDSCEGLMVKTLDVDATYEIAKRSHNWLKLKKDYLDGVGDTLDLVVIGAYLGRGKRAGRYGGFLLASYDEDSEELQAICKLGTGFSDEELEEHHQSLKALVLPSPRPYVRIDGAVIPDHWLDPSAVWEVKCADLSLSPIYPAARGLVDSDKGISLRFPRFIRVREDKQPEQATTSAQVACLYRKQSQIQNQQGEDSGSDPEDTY
Chain of T4 DNA ligase (P00970 whole entry): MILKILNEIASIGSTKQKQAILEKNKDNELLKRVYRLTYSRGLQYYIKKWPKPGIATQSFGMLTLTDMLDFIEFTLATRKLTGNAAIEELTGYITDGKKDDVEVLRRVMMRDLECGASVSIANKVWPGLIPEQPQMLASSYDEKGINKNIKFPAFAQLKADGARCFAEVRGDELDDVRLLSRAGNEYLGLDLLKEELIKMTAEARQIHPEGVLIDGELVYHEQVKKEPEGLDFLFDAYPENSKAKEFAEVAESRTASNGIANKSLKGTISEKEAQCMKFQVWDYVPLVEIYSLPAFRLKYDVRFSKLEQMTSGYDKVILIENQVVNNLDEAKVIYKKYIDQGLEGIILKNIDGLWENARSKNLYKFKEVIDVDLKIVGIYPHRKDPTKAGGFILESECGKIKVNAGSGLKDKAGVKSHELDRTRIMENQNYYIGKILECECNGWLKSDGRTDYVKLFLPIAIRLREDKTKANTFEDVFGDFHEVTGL
T3 sequence (P49916 43-949 isoform P49916-2 limits assumed): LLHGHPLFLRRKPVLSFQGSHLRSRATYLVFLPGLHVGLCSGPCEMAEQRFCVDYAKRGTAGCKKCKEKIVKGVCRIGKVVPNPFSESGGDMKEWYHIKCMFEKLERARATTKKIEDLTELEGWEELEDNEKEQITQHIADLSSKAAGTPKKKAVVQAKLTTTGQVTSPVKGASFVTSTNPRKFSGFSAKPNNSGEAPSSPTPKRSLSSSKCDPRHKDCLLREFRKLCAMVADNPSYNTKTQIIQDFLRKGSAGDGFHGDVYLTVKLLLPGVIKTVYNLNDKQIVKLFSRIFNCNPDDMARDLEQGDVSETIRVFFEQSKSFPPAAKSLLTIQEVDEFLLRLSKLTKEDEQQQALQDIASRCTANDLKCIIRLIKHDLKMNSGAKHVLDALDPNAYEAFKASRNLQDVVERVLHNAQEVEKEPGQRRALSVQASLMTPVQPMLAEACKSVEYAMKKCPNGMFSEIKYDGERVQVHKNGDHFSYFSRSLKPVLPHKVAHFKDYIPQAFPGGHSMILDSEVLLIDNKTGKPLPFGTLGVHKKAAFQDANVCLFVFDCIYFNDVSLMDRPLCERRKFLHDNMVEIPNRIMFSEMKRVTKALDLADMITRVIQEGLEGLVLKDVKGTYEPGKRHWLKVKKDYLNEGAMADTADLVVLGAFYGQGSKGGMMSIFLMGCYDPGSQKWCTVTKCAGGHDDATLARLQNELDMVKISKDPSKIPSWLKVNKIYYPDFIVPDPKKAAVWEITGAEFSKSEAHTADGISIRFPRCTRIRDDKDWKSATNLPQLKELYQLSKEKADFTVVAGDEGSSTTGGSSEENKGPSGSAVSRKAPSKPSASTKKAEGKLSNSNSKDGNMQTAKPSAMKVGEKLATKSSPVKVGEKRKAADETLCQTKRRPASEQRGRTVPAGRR
T1 sequence (P39748 whole entry): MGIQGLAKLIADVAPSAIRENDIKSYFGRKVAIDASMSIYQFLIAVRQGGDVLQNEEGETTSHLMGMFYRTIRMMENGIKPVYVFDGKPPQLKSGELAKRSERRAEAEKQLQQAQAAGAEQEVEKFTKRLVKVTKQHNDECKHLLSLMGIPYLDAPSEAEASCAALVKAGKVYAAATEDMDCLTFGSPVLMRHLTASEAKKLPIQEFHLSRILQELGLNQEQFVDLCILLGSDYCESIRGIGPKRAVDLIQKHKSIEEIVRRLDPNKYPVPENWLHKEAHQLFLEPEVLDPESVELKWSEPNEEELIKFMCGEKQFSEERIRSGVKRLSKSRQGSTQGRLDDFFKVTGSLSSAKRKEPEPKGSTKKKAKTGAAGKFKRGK

COc1cc(/C=C/c2cc(=O)oc3c2ccc2ccccc23)cc(OC)c1 [Compound 19, (E)-4-(3,5-dimethoxystyryl)-2H-benzo[h]chromen-2-one]
Flap cleavage activity of lysate of treated cells [1]: remained unaffected | Conformational change of hLigI (CD) (hLigI [2]): promoted conformational changes in protein | Cell migration (percent open area) (MDA-MB-231 cells): significantly inhibit the cell migration | Cmax ([3]; male, Sprague Dawley, iv, I.V route, 5 mg/kg, plasma concentration at 5 min): 325 ± 102 ng/mL | AUC(0-t) [3, 6]: 457 ± 131 ng·h/mL | half-life [3, 6]: 19.2 ± 11.8 h | bioavailability ([3]; male, Sprague Dawley, plasma, oral 50 mg/kg versus I.V 5 mg/kg, read-out: Bioavailability (%F)): 7.85 ± 0.65% | AUC(0-t) [3, 7]: 342 ± 18.6 ng·h/mL | Cmax [3, 7]: 13.4 ± 2.92 ng/mL | Tmax [3, 7]: 0.5 h | half-life [3, 7]: 22.8 ± 4.69 h | Time up to which plasma concentrations are detectable ([3]; after oral dosing, 50 mg/kg): up to 72 h | DNA ligase activity in cell free extracts of treated cells [4]: can inhibit DNA ligase activity | Inhibition of T4 DNA ligase activity (T4 DNA ligase): unaffected | Inhibition of hLigIIIβ ligation activity (hLigIIIβ): unaffected | Inhibition of hLigIV/XRCC4 ligation activity (hLigIV/XRCC4): unaffected | Antiligase activity, compound versus parent molecules (hLigI [5]; 20 µM): significantly better antiligase activity | Inhibition of hLigI ligation activity (hLigI [5]; 5, 10 and 20 µM): specifically inhibits the activity of hLigI
